According to patent US6350585B1, “Reagent for assay of amylase isozyme activity” (priority 1998, dated 2002):

Legend:
[1] = target: T1, S-type amylase (Calibzyme S) (Homo sapiens, UniProt P0DUB6); test: amylase isozyme activity assay with sodium azide as activator, S-type amylase sample; assay type: biochemical; conditions: for Change in absorbance, Containing Antibody (Composition C) / Change in absorbance, Without antibody (Composition D) / Relative sensitivity / Percent residual enzyme activity: S-type amylase; for Relative sensitivity: G3CNP at 300 mM = 100; for Percent residual enzyme activity: composition C/D
T1 construct: purchased International Reagents Corporation Calibzyme S
T1 sequence (P0DUB6 16-511): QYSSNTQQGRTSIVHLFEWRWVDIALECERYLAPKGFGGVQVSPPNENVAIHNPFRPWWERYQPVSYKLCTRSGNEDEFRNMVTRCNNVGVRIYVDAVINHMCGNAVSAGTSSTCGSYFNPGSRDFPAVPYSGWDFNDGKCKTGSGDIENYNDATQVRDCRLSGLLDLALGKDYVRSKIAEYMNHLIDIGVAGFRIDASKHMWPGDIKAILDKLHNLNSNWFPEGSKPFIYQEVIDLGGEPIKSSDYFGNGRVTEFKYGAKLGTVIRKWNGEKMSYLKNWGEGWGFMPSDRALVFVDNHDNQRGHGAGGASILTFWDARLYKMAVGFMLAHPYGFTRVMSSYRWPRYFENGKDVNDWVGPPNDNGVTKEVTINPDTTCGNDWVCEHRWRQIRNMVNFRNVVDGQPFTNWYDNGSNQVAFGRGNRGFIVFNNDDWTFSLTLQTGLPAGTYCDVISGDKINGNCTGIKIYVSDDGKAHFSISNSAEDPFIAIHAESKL
Description: (§1) S-type amylase inhibitory antibody 88E8 (manufactured by Roche Diagnostics K.K.) 20 mg/L
(§2) S-type amylase inhibitory antibody 66C7 (manufactured by Roche Diagnostics K.K.) 5 mg/L
(§3) Substrate (GalG2CNP (Example) or G3CNP (Comparative Example)) 2.6 mM
(3) S-type Amylase (Calibzyme S, Manufactured by International Reagents Corporation)
(§4) Each of the above-mentioned samples (0.05 mL) was added to respective reagent C and D (3 mL) and the mixtures were left standing at 37° C. for 3 minutes. Then, change in absorbance at 405 nm was assayed and change in absorbance per minute was calculated.
(§5) In the Tables, P is the case where P-type amylase was used as the sample, and S is the case where S-type amylase was used. The relative sensitivity of P and S is based on the change in absorbance of G3CNP as 100, wherein sodium azide was 300 mM.
(§6) Percent residual enzyme activity and relative sensitivity were calculated by the following formulas.
(§7) Percent residual enzyme activity (%)=(change in absorbance of composition C)/(change in absorbance of composition D)×100
(§8) Relative sensitivity (%)=(change in absorbance of composition D)/(change in absorbance of Comparative Example wherein sodium azide was 300 mM)×100

[2] = target: T2, P-type amylase (Calibzyme P) (Homo sapiens, UniProt P04746); test: amylase isozyme activity assay with sodium azide as activator, P-type amylase sample; assay type: biochemical; conditions: for Percent residual enzyme activity: composition C/D
T2 construct: purchased International Reagents Corporation Calibzyme P
T2 sequence (P04746 16-511): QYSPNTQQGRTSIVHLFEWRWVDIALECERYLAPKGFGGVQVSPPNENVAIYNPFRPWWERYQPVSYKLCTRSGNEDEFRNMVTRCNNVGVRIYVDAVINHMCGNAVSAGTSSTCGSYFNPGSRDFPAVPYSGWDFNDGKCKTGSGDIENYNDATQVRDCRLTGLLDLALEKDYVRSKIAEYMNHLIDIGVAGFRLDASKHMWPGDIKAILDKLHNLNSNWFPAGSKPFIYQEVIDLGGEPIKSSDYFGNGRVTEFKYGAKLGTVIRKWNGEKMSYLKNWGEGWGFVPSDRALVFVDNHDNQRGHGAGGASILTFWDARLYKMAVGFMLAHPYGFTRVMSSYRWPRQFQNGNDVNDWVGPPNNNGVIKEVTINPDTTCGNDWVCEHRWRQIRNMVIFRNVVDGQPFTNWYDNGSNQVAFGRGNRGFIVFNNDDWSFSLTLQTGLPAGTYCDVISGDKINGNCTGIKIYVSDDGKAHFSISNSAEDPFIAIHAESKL
Description: as §1, §2, §3
(2) P-type Amylase (Calibzyme P, Manufactured by International Reagents Corporation)
as §4, §5, §6, §7, §8

- Change in absorbance, Containing Antibody (Composition C) ([1]; sodium azide 0 mM): 0.8 mABS/min
- Change in absorbance, Without antibody (Composition D) ([1]; sodium azide 0 mM): 14.6 mABS/min
- Relative sensitivity ([1]; sodium azide 0 mM): 31.8%
- Percent residual enzyme activity ([1]; sodium azide 0 mM): 5.5%
- Change in absorbance, Containing Antibody (Composition C) ([1]; sodium azide 30 mM): 1.6 mABS/min
- Change in absorbance, Without antibody (Composition D) ([1]; sodium azide 30 mM): 33.2 mABS/min
- Relative sensitivity ([1]; sodium azide 30 mM): 72.3%
- Percent residual enzyme activity ([1]; sodium azide 30 mM): 4.8%
- Change in absorbance, Containing Antibody (Composition C) ([1]; sodium azide 60 mM): 2.0 mABS/min
- Change in absorbance, Without antibody (Composition D) ([1]; sodium azide 60 mM): 43.8 mABS/min
- Relative sensitivity ([1]; sodium azide 60 mM): 95.4%
- Percent residual enzyme activity ([1]; sodium azide 60 mM): 4.6%
- Change in absorbance, Containing Antibody (Composition C) ([1]; sodium azide 90 mM): 2.4 mABS/min
- Change in absorbance, Without antibody (Composition D) ([1]; sodium azide 90 mM): 49.6 mABS/min
- Relative sensitivity ([1]; sodium azide 90 mM): 108.1%
- Percent residual enzyme activity ([1]; sodium azide 90 mM): 4.8%
- Change in absorbance, Containing Antibody (Composition C) ([1]; sodium azide 120 mM): 2.6 mABS/min
- Change in absorbance, Without antibody (Composition D) ([1]; sodium azide 120 mM): 53.1 mABS/min
- Relative sensitivity ([1]; sodium azide 120 mM): 115.7%
- Percent residual enzyme activity ([1]; sodium azide 120 mM): 4.9%
- Change in absorbance, Containing Antibody (Composition C) ([1]; sodium azide 150 mM): 2.4 mABS/min
- Change in absorbance, Without antibody (Composition D) ([1]; sodium azide 150 mM): 57.8 mABS/min
- Relative sensitivity ([1]; sodium azide 150 mM): 125.9%
- Percent residual enzyme activity ([1]; sodium azide 150 mM): 4.2%
- Change in absorbance, Containing Antibody (Composition C) ([1]; sodium azide 200 mM): 2.6 mABS/min
- Change in absorbance, Without antibody (Composition D) ([1]; sodium azide 200 mM): 61.1 mABS/min
- Relative sensitivity ([1]; sodium azide 200 mM): 133.1%
- Percent residual enzyme activity ([1]; sodium azide 200 mM): 4.3%
- Change in absorbance, Containing Antibody (Composition C) ([1]; sodium azide 250 mM): 2.5 mABS/min
- Change in absorbance, Without antibody (Composition D) ([1]; sodium azide 250 mM): 67.3 mABS/min
- Relative sensitivity ([1]; sodium azide 250 mM): 146.6%
- Percent residual enzyme activity ([1]; sodium azide 250 mM): 3.7%
- Change in absorbance, Containing Antibody (Composition C) ([1]; sodium azide 300 mM): 2.6 mABS/min
- Change in absorbance, Without antibody (Composition D) ([1]; sodium azide 300 mM): 66.8 mABS/min
- Relative sensitivity ([1]; sodium azide 300 mM): 145.5%
- Percent residual enzyme activity ([1]; sodium azide 300 mM): 3.9%
- percent inhibition of S-type amylase ([1]; irrespective of sodium azide concentrations, FIG. 4 and FIG. 5): around 95%
- Change in absorbance, Containing Antibody (Composition C) ([2]; sodium azide 0 mM): 26.4 mABS/min
- Change in absorbance, Without antibody (Composition D) ([2]; sodium azide 0 mM): 26.3 mABS/min
- Relative sensitivity ([2]; sodium azide 0 mM, G3CNP at 300 mM = 100): 57.7%
- Percent residual enzyme activity ([2]; sodium azide 0 mM): 100.4%
- Change in absorbance, Containing Antibody (Composition C) ([2]; sodium azide 30 mM): 43.6 mABS/min
- Change in absorbance, Without antibody (Composition D) ([2]; sodium azide 30 mM): 44.6 mABS/min
- Relative sensitivity ([2]; sodium azide 30 mM, G3CNP at 300 mM = 100): 97.8%
- Relative sensitivity ([2]; sodium azide 30 mM, G3CNP at 300 mM = 100, listed as Example): about 98%
- Percent residual enzyme activity ([2]; sodium azide 30 mM): 97.8%
- Change in absorbance, Containing Antibody (Composition C) ([2]; sodium azide 60 mM): 52.5 mABS/min
- Change in absorbance, Without antibody (Composition D) ([2]; sodium azide 60 mM): 52.8 mABS/min
- Relative sensitivity ([2]; sodium azide 60 mM, G3CNP at 300 mM = 100): 115.8%
- Percent residual enzyme activity ([2]; sodium azide 60 mM): 99.4%
- Change in absorbance, Containing Antibody (Composition C) ([2]; sodium azide 90 mM): 60.1 mABS/min
- Change in absorbance, Without antibody (Composition D) ([2]; sodium azide 90 mM): 59.6 mABS/min
- Relative sensitivity ([2]; sodium azide 90 mM, G3CNP at 300 mM = 100): 130.7%
- Percent residual enzyme activity ([2]; sodium azide 90 mM): 100.8%
- Change in absorbance, Containing Antibody (Composition C) ([2]; sodium azide 120 mM): 64.9 mABS/min
- Change in absorbance, Without antibody (Composition D) ([2]; sodium azide 120 mM): 63.4 mABS/min
- Relative sensitivity ([2]; sodium azide 120 mM, G3CNP at 300 mM = 100): 139.0%
- Percent residual enzyme activity ([2]; sodium azide 120 mM): 102.4%
- Change in absorbance, Containing Antibody (Composition C) ([2]; sodium azide 150 mM): 68.2 mABS/min
- Change in absorbance, Without antibody (Composition D) ([2]; sodium azide 150 mM): 68.4 mABS/min
- Relative sensitivity ([2]; sodium azide 150 mM, G3CNP at 300 mM = 100): 150.0%
- Percent residual enzyme activity ([2]; sodium azide 150 mM): 99.7%
- Change in absorbance, Containing Antibody (Composition C) ([2]; sodium azide 200 mM): 72.2 mABS/min
- Change in absorbance, Without antibody (Composition D) ([2]; sodium azide 200 mM): 70.1 mABS/min
- Relative sensitivity ([2]; sodium azide 200 mM, G3CNP at 300 mM = 100): 153.7%
- Percent residual enzyme activity ([2]; sodium azide 200 mM): 103.0%
- Change in absorbance, Containing Antibody (Composition C) ([2]; sodium azide 250 mM): 74.4 mABS/min
- Change in absorbance, Without antibody (Composition D) ([2]; sodium azide 250 mM): 72.4 mABS/min
- Relative sensitivity ([2]; sodium azide 250 mM, G3CNP at 300 mM = 100): 158.8%
- Percent residual enzyme activity ([2]; sodium azide 250 mM): 102.8%
- Change in absorbance, Containing Antibody (Composition C) ([2]; sodium azide 300 mM): 76.8 mABS/min
- Change in absorbance, Without antibody (Composition D) ([2]; sodium azide 300 mM): 75.6 mABS/min
- Relative sensitivity ([2]; sodium azide 300 mM, G3CNP at 300 mM = 100): 165.8%
- Percent residual enzyme activity ([2]; sodium azide 300 mM): 101.6%
SMILES: O=[N+]([O-])c1ccc(O[C@H]2O[C@H](CO)[C@@H](O[C@H]3O[C@H](CO)[C@@H](O[C@@H]4O[C@H](CO)[C@H](O)[C@H](O)[C@H]4O)[C@H](O)[C@H]3O)[C@H](O)[C@H]2O)c(Cl)c1 [GalG2CNP, 2-chloro-4-nitrophenyl 4-O-β-D-galactopyranosylmaltoside]
